Source: US5438053A, “Cephem compounds compositions and method” (Takeda Chemical Industries, Ltd., priority 1992, dated 1995)

How the values were obtained:
[1] = system: P. aeruginosa NC-5; assay: Minimal inhibitory concentration (MIC) by the agar dilution method, P. aeruginosa NC-5; format: cell-based; conditions: Pseudomonas aeruginosa, NC5, Mueller-Hinton agar, about 10^4 CFU/spot, 37° C. overnight
Protocol: (§1) Test Example 1 Minimal Inhibitory Concentrations (MIC)
(§2) The minimal inhibitory concentrations (MIC) of the test compounds were determined by the agar dilution method. More specifically, 0.25 ml each of aqueous solutions of the test compounds diluted by the serial dilution method was poured into petridishes. To each of these petridishes was poured 9.75 ml of Mueller-Hinton agar, followed by mixing. On each of these agar plates was a suspension of the test microorganism (about 10^4 CFU/spot). The lowest concentration of the test compounds inhibiting the growth of test microorganisms, after the incubation at 37° C. overnight, was taken as MIC.

[2] = system: P. aeruginosa P9; assay: Minimal inhibitory concentration (MIC) by the agar dilution method, P. aeruginosa P9; format: cell-based; conditions: Pseudomonas aeruginosa, Mueller-Hinton agar, about 10^4 CFU/spot, 37° C. overnight
Protocol: as §1, §2

Row | Compound | MIC [1] [mg/L] | MIC [2] [mg/L]
1 | CO/N=C(\C(=O)N[C@@H]1C(=O)N2C(C(=O)O)=C(CSc3nnnn3Cc3cc(=O)c(O)cn3OC)CS[C@H]12)c1nsc(N)n1 [Ex. 10, Sodium 7β-[2-(5-amino-1,2,4-thiadiazol-3-yl)-(Z)-2-methoxyiminoacetamido]-3-[[1-[(5-hydroxy-1-methoxy-4-pyridon-2-yl)methyl]-1H-tetrazol-5-yl]thiomethyl]-3-cephem-4-carboxylate] | 0.1 | 0.2
2 | CO/N=C(\C(=O)N[C@@H]1C(=O)N2C(C(=O)O)=C(CSc3snc(SCc4cc(=O)c(O)cn4O)c3C#N)CS[C@H]12)c1nsc(N)n1 [Ex. 3, Sodium 7β-[2-(5-amino-1,2,4-thiadiazol-3-yl)-(Z)-2-methoxyiminoacetamido]-3-[[4-cyano-3-[(1,5-dihydroxy-4-pyridon-2-yl)methylthio]isothiazol-5-yl]thiomethyl]-3-cephem-4-carboxylate] | 0.05 | 0.1
3 | CC(C)(O/N=C(\C(=O)N[C@@H]1C(=O)N2C(C(=O)O)=C(CSc3nnnn3Cc3cc(=O)c(O)cn3O)CS[C@H]12)c1nsc(N)n1)C(=O)O [Ex. 26, Disodium 7β-[2-(5-amino-1,2,4-thiadiazol-3-yl)-(Z)-2-(1-carboxylato-1-methylethoxyimino)acetamido]-3-[[1-[(1,5-dihydroxy-4-pyridon-2-yl)methyl]-1H-tetrazol-5-yl]thiomethyl]-3-cephem-4-carboxylate] | 0.006 | 0.025
4 | CCO/N=C(\C(=O)N[C@@H]1C(=O)N2C(C(=O)O)=C(CSc3nnnn3Cc3cc(=O)c(O)cn3OC)CS[C@H]12)c1nsc(N)n1 [Ex. 12, Sodium 7β-[2-(5-amino-1,2,4-thiadiazol-3-yl)-(Z)-2-ethoxyiminoacetamido]-3-[[1-[(5-hydroxy-1-methoxy-4-pyridon-2-yl)methyl]-1H-tetrazol-5-yl]thiomethyl]-3-cephem-4-carboxylate] | 0.2 | 0.2
